In ChEMBL document CHEMBL1201862, “PubChem BioAssay data set” (2004):
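Tested at 5 concentrations; 48 h exposure; 96-well plates; endpoints linearly interpolated, else capped at highest concentration. GI50 is the concentration that inhibits growth by half.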 Calls of active or inactive are those of the source. No stated cut-off is given here; in the data, active = GI50 up to about 1.1 µM and inactive = higher.

Key:
Test in all cases: growth of human tumour cells (NCI), 48 h
NCI/ADR-RES = tested on: NCI/ADR-RES
M14 = tested on: M14
NCI-H522 = tested on: NCI-H522
SK-MEL-5 = tested on: SK-MEL-5
MDA-MB-231 = tested on: MDA-MB-231
SNB-19 = tested on: SNB-19
SK-OV-3 = tested on: SK-OV-3
MOLT-4 = tested on: MOLT-4
HOP-92 = tested on: HOP-92
MDA-N = tested on: MDA-N
UACC-257 = tested on: UACC-257
SR = tested on: SR
RXF 393 = tested on: RXF 393
IGROV-1 = tested on: IGROV-1
OVCAR-8 = tested on: OVCAR-8
HOP-62 = tested on: HOP-62
SN12C = tested on: SN12C
HL-60 = tested on: HL-60
786-0 = tested on: 786-0
HCT-15 = tested on: HCT-15

| SMILES | GI50 (NCI/ADR-RES) | GI50 (M14) | GI50 (NCI-H522) | GI50 (SK-MEL-5) | GI50 (MDA-MB-231) | GI50 (SNB-19) | GI50 (SK-OV-3) | GI50 (MOLT-4) | GI50 (HOP-92) | GI50 (MDA-N) | GI50 (UACC-257) | GI50 (SR) | GI50 (RXF 393) | GI50 (IGROV-1) | GI50 (OVCAR-8) | GI50 (HOP-62) | GI50 (SN12C) | GI50 (HL-60) | GI50 (786-0) | GI50 (HCT-15) [µM] |
| --- | --- | --- | --- | --- | --- | --- | --- | --- | --- | --- | --- | --- | --- | --- | --- | --- | --- | --- | --- | --- |
| CCOC1C=CCCO1 (stereo not given) | > 100 µM (inactive) | > 100 µM (inactive) | > 100 µM (inactive) | > 100 µM (inactive) | > 100 µM (inactive) | > 100 µM (inactive) | > 100 µM (inactive) | > 100 µM (inactive) | > 100 µM (inactive) | > 100 µM (inactive) | > 100 µM (inactive) | > 100 µM (inactive) | > 100 µM (inactive) | > 100 µM (inactive) | > 100 µM (inactive) | > 100 µM (inactive) | > 100 µM (inactive) | > 100 µM (inactive) | > 100 µM (inactive) | > 100 |
| NC(=O)c1cc(N2CC2)c([N+](=O)[O-])cc1[N+](=O)[O-] [TRETAZICAR] | > 200 µM (inactive) | > 100 µM (inactive) | > 100 µM (inactive) | > 200 µM (inactive) | > 200 µM (inactive) | > 100 µM (inactive) | > 100 µM (inactive) | > 63.2 µM (inactive) | > 100 µM (inactive) | > 200 µM (inactive) | > 100 µM (inactive) | > 200 µM (inactive) | > 100 µM (inactive) | > 100 µM (inactive) | > 100 µM (inactive) | > 100 µM (inactive) | > 100 µM (inactive) | > 100 µM (inactive) | > 100 µM (inactive) | > 145 |
| O=CN/C=C/c1cccc(O)c1 | 52.2 µM (inactive) | 61.9 µM (inactive) | 48.3 µM (inactive) | > 63.1 µM (inactive) | 49.8 µM (inactive) | 70.1 µM (inactive) | > 72.1 µM (inactive) | 59.8 µM (inactive) | 55.2 µM (inactive) | 46 µM (inactive) | 63.7 µM (inactive) | > 43.7 µM (inactive) | 60 µM (inactive) | 55 µM (inactive) | 54.1 µM (inactive) | 39.3 µM (inactive) | 56.2 µM (inactive) | 38.5 µM (inactive) | 54 µM (inactive) | 72.1 |
| COc1ccc2c(cnc3c4cc(OC)c(OC)cc4ccc23)c1 | > 100 µM (inactive) | > 100 µM (inactive) | > 100 µM (inactive) | > 100 µM (inactive) | > 100 µM (inactive) | > 100 µM (inactive) | > 100 µM (inactive) | > 100 µM (inactive) | > 100 µM (inactive) | > 100 µM (inactive) | > 100 µM (inactive) | > 100 µM (inactive) | > 100 µM (inactive) | > 100 µM (inactive) | > 100 µM (inactive) | > 100 µM (inactive) | > 100 µM (inactive) | > 100 µM (inactive) | > 100 µM (inactive) | > 100 |
| CC(C)=CCC[C@@H](C)C1=C(O)C(O)C(C)=C2N=C(c3ccccc3)C(=O)OC21 (stereo not given in full) | 0.794 µM (active) | 4.71 µM (inactive) | 0.624 µM (active) | 1.29 µM (inactive) | 2.52 µM (inactive) | 3.33 µM (inactive) | 1.12 µM (inactive) | > 7.41 µM (inactive) | 0.723 µM (active) | 7.57 µM (inactive) | 2.88 µM (inactive) | > 9.84 µM (inactive) | 1.35 µM (inactive) | 1.22 µM (inactive) | 0.933 µM (active) | 3.71 µM (inactive) | 1.43 µM (inactive) | 0.521 µM (active) | 7.8 µM (inactive) | 2.31 |
| Cc1ccc2[nH]c3[nH]c(=S)[nH]c(=O)c3c2c1 | > 100 µM (inactive) | > 100 µM (inactive) | > 100 µM (inactive) | > 100 µM (inactive) | > 100 µM (inactive) | > 100 µM (inactive) | > 100 µM (inactive) | 97.5 µM (inactive) | > 100 µM (inactive) | > 100 µM (inactive) | > 100 µM (inactive) | > 100 µM (inactive) | > 100 µM (inactive) | > 100 µM (inactive) | > 100 µM (inactive) | > 100 µM (inactive) | > 100 µM (inactive) | > 100 µM (inactive) | > 100 µM (inactive) | > 100 |
| O=C(CCC(=O)c1ccc(Cl)cc1)NO | > 100 µM (inactive) | > 100 µM (inactive) | > 100 µM (inactive) | > 100 µM (inactive) | > 100 µM (inactive) | > 100 µM (inactive) | > 100 µM (inactive) | > 100 µM (inactive) | > 100 µM (inactive) | > 100 µM (inactive) | > 100 µM (inactive) | > 100 µM (inactive) | > 100 µM (inactive) | > 100 µM (inactive) | > 100 µM (inactive) | > 100 µM (inactive) | > 100 µM (inactive) | > 100 µM (inactive) | > 100 µM (inactive) | > 100 |
